Assay results: patent publication US20240180139A1, “SOLVENT FOR INSECT REPELLENT ACTIVE INGREDIENT AND INSECT REPELLENT SYSTEM USING SAME” (Thermacell Repellents, Inc., priority 2021, published 2024)
Where two headings read alike, the source gives them in different places.

Experiments:
[1] = solubility of pyrethroid active ingredients in glycol solvents
Text: In the development of active ingredient and solvent formulations, glycols, like glycol-related solvents, have physical and chemical characteristics that would not be considered an aspiration hazard. Evaluations of a range of glycol and modified glycol solvents also involved consideration of a variety of materials in contact with these solvents. […] In addition to considerations of the device, solubility of the active ingredients is a significant consideration on several levels. […] Considerations of not only the solvent material but the concentration levels of particular active ingredients ae necessary to create an efficacious formula compatible with heated repeller devices. […] Incorporating active ingredients at such high levels creates additional solubility challenges which further reduces suitable active ingredient candidates.

[2] = release / vaporization rate through heated wick of dispensing device; type: physicochemical; conditions: relative to metofluthrin and transfluthrin, in certain test conditions
Text: (§1) Once candidate materials are identified, considerations of whether release rates relative to the selected glycols would be sufficient to deliver good spatial mosquito repellency. […] In one embodiment, an approximate 70:30 solvent ratio of two solvents is provided.

mosquitoes = assay: outdoor spatial mosquito repellency
Text: as §1, with “provided. In another aspect, the solvent ratio may be a ratio range such as 60-70:40-30, or 65-70:35-30, wherein the sum of specific glycol amounts totals to 100.” for “provided.”

For `OCCO` [ethylene glycol], the “solvent quality for insect repellents” value ([1]; some of the insect repellents, particularly prallethrin (FIG. 6)) was “not good solvents”.

With `OCC(O)CO` [glycerol] the release rate capacity [2] was “limited release rate capacity”.

In the case of `C/C=C/C1C(C(=O)OCc2c(F)c(F)c(COC)c(F)c2F)C1(C)C` (centres unmarked) [metofluthrin], the “zone of mosquito repellency” value (mosquitoes; glycol as solvent, 3-4 Watt heating element) is reported as 20 foot and the “active ingredient concentration in the formula needed for sufficient outdoor mosquito repellency” value (mosquitoes; outdoors) is reported as 4%.

In the case of `CC(O)CO` (centres unmarked) [propylene glycol], the “solvent quality for insect repellents” value [1] is reported as “not good solvents”.
